Laboratory results reported in ChEMBL document CHEMBL4138123, “Design, synthesis and biological evaluation of novel pyrazolochalcones as potential modulators of PI3K/Akt/mTOR pathway and inducers of apoptosis in breast cancer cells” (Eur J Med Chem, 2017).

Columns and labels:
Format in all cases: functional
[1] = tested on: SN12C; assay: Cytotoxicity against human SN12C cells assessed as cell growth at 10 uM after 48 hrs by sulforhodamine B assay relative to control; settings: read-out: Activity
[2] = tested on: SW-620; assay: Cytotoxicity against human SW620 cells assessed as cell growth at 10 uM after 48 hrs by sulforhodamine B assay relative to control; settings: SW-620, 48 h, read-out: Activity
[3] = tested on: UACC-257; assay: Cytotoxicity against human UACC257 cells assessed as cell growth at 100 uM after 48 hrs by sulforhodamine B assay relative to control; settings: UACC-257, 48 h, read-out: Activity
[4] = tested on: BT-549; assay: Cytotoxicity against human BT549 cells assessed as cell growth at 1 uM after 48 hrs by sulforhodamine B assay relative to control; settings: BT-549, 48 h, read-out: Activity
[5] = tested on: UO-31; assay: Cytotoxicity against human UO31 cells assessed as cell growth at 10 uM after 48 hrs by sulforhodamine B assay relative to control; settings: UO-31, 48 h, read-out: Activity
[6] = tested on: MDA-MB-435; assay: Cytotoxicity against human MDA-MB-435 cells assessed as growth inhibition after 48 hrs by sulforhodamine B assay; settings: MDA-MB-435, 48 h
[7] = tested on: RPMI-8226; assay: Cytotoxicity against human RPMI8226 cells assessed as cell growth at 0.01 uM after 48 hrs by sulforhodamine B assay relative to control; settings: RPMI-8226, 48 h, read-out: Activity
[8] = tested on: T47D; assay: Cytotoxicity against human T47D cells assessed as cell growth at 100 uM after 48 hrs by sulforhodamine B assay relative to control; settings: read-out: Activity
[9] = tested on: DU-145; assay: Cytotoxicity against human DU145 cells assessed as cell growth at 0.01 uM after 48 hrs by sulforhodamine B assay relative to control; settings: DU-145, 48 h, read-out: Activity
[10] = tested on: SK-MEL-5; assay: Cytotoxicity against human SK-MEL-5 cells assessed as cell growth at 0.01 uM after 48 hrs by sulforhodamine B assay relative to control; settings: SK-MEL-5, 48 h, read-out: Activity
[11] = tested on: MCF7; assay: Cytotoxicity against human MCF7 cells assessed as cell growth at 100 uM after 48 hrs by sulforhodamine B assay relative to control; settings: MCF7, 48 h, read-out: Activity
[12] = tested on: SNB-19; assay: Cytotoxicity against human SNB19 cells assessed as cell growth at 0.01 uM after 48 hrs by sulforhodamine B assay relative to control; settings: SNB-19, 48 h, read-out: Activity
[13] = tested on: COLO 205; assay: Cytotoxicity against human COLO205 cells assessed as cell growth at 10 uM after 48 hrs by sulforhodamine B assay relative to control; settings: COLO 205, 48 h, read-out: Activity
[14] = tested on: HCT-15; assay: Cytotoxicity against human HCT15 cells assessed as cell growth at 0.1 uM after 48 hrs by sulforhodamine B assay relative to control; settings: HCT-15, 48 h, read-out: Activity
[15] = tested on: ACHN; assay: Cytotoxicity against human ACHN cells assessed as cell growth at 0.1 uM after 48 hrs by sulforhodamine B assay relative to control; settings: read-out: Activity
[16] = tested on: NCI-H322M; assay: Cytotoxicity against human NCI-H322M cells assessed as cell growth at 0.1 uM after 48 hrs by sulforhodamine B assay relative to control; settings: read-out: Activity
[17] = tested on: NCI-H522; assay: Cytotoxicity against human NCI-H522 cells assessed as cell growth at 10 uM after 48 hrs by sulforhodamine B assay relative to control; settings: NCI-H522, 48 h, read-out: Activity
[18] = tested on: HOP-62; assay: Cytotoxicity against human HOP62 cells assessed as cell growth at 10 uM after 48 hrs by sulforhodamine B assay relative to control; settings: HOP-62, 48 h, read-out: Activity
[19] = tested on: SW-620; assay: Cytotoxicity against human SW620 cells assessed as cell growth at 0.1 uM after 48 hrs by sulforhodamine B assay relative to control; settings: SW-620, 48 h, read-out: Activity
[20] = tested on: A498; assay: Cytotoxicity against human A498 cells assessed as cell growth at 10 uM after 48 hrs by sulforhodamine B assay relative to control; settings: A498, 48 h, read-out: Activity
[21] = tested on: SK-OV-3; assay: Cytotoxicity against human SKOV3 cells assessed as cell growth at 0.01 uM after 48 hrs by sulforhodamine B assay relative to control; settings: SK-OV-3, 48 h, read-out: Activity
[22] = tested on: COLO 205; assay: Cytotoxicity against human COLO205 cells assessed as cell growth at 1 uM after 48 hrs by sulforhodamine B assay relative to control; settings: COLO 205, 48 h, read-out: Activity
[23] = tested on: UACC-257; assay: Cytotoxicity against human UACC257 cells assessed as cell growth at 1 uM after 48 hrs by sulforhodamine B assay relative to control; settings: UACC-257, 48 h, read-out: Activity
[24] = tested on: IGROV-1; assay: Cytotoxicity against human IGROV1 cells assessed as growth inhibition after 48 hrs by sulforhodamine B assay; settings: IGROV-1, 48 h
[25] = tested on: A549; assay: Cytotoxicity against human A549/ATCC cells assessed as cell growth at 100 uM after 48 hrs by sulforhodamine B assay relative to control; settings: A549, 48 h, read-out: Activity
[26] = tested on: HCC 2998; assay: Cytotoxicity against human HCC2998 cells assessed as cell growth at 1 uM after 48 hrs by sulforhodamine B assay relative to control; settings: HCC 2998, 48 h, read-out: Activity
[27] = tested on: NCI-H460; assay: Cytotoxicity against human NCI-H460 cells assessed as cell growth at 1 uM after 48 hrs by sulforhodamine B assay relative to control; settings: NCI-H460, 48 h, read-out: Activity
[28] = tested on: SN12C; assay: Cytotoxicity against human SN12C cells assessed as cell growth at 1 uM after 48 hrs by sulforhodamine B assay relative to control; settings: read-out: Activity
[29] = tested on: A498; assay: Cytotoxicity against human A498 cells assessed as cell growth at 0.1 uM after 48 hrs by sulforhodamine B assay relative to control; settings: A498, 48 h, read-out: Activity
[30] = tested on: Hs-578T; assay: Cytotoxicity against human Hs 578T cells assessed as cell growth at 100 uM after 48 hrs by sulforhodamine B assay relative to control; settings: read-out: Activity
[31] = tested on: SK-MEL-5; assay: Cytotoxicity against human SK-MEL-5 cells assessed as cell growth at 100 uM after 48 hrs by sulforhodamine B assay relative to control; settings: SK-MEL-5, 48 h, read-out: Activity
[32] = tested on: NCI-H522; assay: Cytotoxicity against human NCI-H522 cells assessed as cell growth at 1 uM after 48 hrs by sulforhodamine B assay relative to control; settings: NCI-H522, 48 h, read-out: Activity
[33] = tested on: U-251; assay: Cytotoxicity against human U251 cells assessed as cell growth at 10 uM after 48 hrs by sulforhodamine B assay relative to control; settings: U-251, 48 h, read-out: Activity
[34] = tested on: MDA-MB-435; assay: Cytotoxicity against human MDA-MB-435 cells assessed as cell growth at 0.01 uM after 48 hrs by sulforhodamine B assay relative to control; settings: MDA-MB-435, 48 h, read-out: Activity
[35] = tested on: NCI-H226; assay: Cytotoxicity against human NCI-H226 cells assessed as cell growth at 0.1 uM after 48 hrs by sulforhodamine B assay relative to control; settings: NCI-H226, 48 h, read-out: Activity
[36] = tested on: LOX IMVI; assay: Cytotoxicity against human LOXIMVI cells assessed as growth inhibition after 48 hrs by sulforhodamine B assay

## COc1cc(-c2cc(/C=C/C(=O)c3ccc(N)cc3)[nH]n2)cc(OC)c1OC
[1]
  growth at 10 µM: -45%
[2]
  growth at 10 µM: -20%
[3]
  growth at 100 µM: -93%
[4]
  growth at 1 µM: 73%
[5]
  growth at 10 µM: -84%
[6]
  GI50: 1.66 µM
  LC50: 6.2 µM
  TGI: 3.21 µM
[7]
  growth at 0.01 µM: 98%
[8]
  growth at 100 µM: -47%
[9]
  growth at 0.01 µM: 107%
[10]
  growth at 0.01 µM: 95%
[11]
  growth at 100 µM: -57%
[12]
  growth at 0.01 µM: 96%
[13]
  growth at 10 µM: -84%
[14]
  growth at 0.1 µM: 94%
[15]
  growth at 0.1 µM: 97%
[16]
  growth at 0.1 µM: 103%
[17]
  growth at 10 µM: -51%
[18]
  growth at 10 µM: -59%
[19]
  growth at 0.1 µM: 95%
[20]
  growth at 10 µM: -43%
[21]
  growth at 0.01 µM: 82%
[22]
  growth at 1 µM: 92%
[23]
  growth at 1 µM: 91%
[24]
  GI50: 3.2 µM
  LC50: > 100 µM
  TGI: 10.5 µM
[25]
  growth at 100 µM: -52%
[26]
  growth at 1 µM: 110%
[27]
  growth at 1 µM: 78%
[28]
  growth at 1 µM: 85%
[29]
  growth at 0.1 µM: 85%
[30]
  growth at 100 µM: 2%
[31]
  growth at 100 µM: -94%
[32]
  growth at 1 µM: 77%
[33]
  growth at 10 µM: -96%
[34]
  growth at 0.01 µM: 90%
[35]
  growth at 0.1 µM: 98%
[36]
  GI50: 1.06 µM
  LC50: 6.72 µM
  TGI: 3.28 µM

## COc1ccc(C(=O)/C=C/c2cc(-c3ccc(OC)c(OC)c3)n[nH]2)cc1OC
[1]
  growth at 10 µM: -40%
[2]
  growth at 10 µM: -24%
[3]
  growth at 100 µM: -70%
[4]
  growth at 1 µM: 75%
[5]
  growth at 10 µM: -52%
[6]
  GI50: 1.72 µM
[7]
  growth at 0.01 µM: 98%
[8]
  growth at 100 µM: -9%
[9]
  growth at 0.01 µM: 106%
[10]
  growth at 0.01 µM: 96%
[11]
  growth at 100 µM: -40%
[12]
  growth at 0.01 µM: 91%
[13]
  growth at 10 µM: -84%
[14]
  growth at 0.1 µM: 95%
[15]
  growth at 0.1 µM: 96%
[16]
  growth at 0.1 µM: 105%
[17]
  growth at 10 µM: -56%
[18]
  growth at 10 µM: -25%
[19]
  growth at 0.1 µM: 95%
[20]
  growth at 10 µM: -62%
[21]
  growth at 0.01 µM: 83%
[22]
  growth at 1 µM: 82%
[23]
  growth at 1 µM: 96%
[24]
  GI50: 3.13 µM
  TGI: 53.8 µM
[25]
  growth at 100 µM: -19%
[26]
  growth at 1 µM: 95%
[27]
  growth at 1 µM: 36%
[28]
  growth at 1 µM: 85%
[29]
  growth at 0.1 µM: 81%
[30]
  growth at 100 µM: 18%
[31]
  growth at 100 µM: -96%
[32]
  growth at 1 µM: 82%
[33]
  growth at 10 µM: -85%
[34]
  growth at 0.01 µM: 89%
[35]
  growth at 0.1 µM: 88%
[36]
  GI50: 1.29 µM
  TGI: 2.7 µM
